Data as given in patent US10266806B2, “Stem cell-derived hepatocytes in co-culture and uses thereof” (Colorado State University Research Foundation, priority 2014, dated 2019).
Structures can show the parent of a compound that is named as a salt.

Assays:
iHeps in iMPCCs = settings: for TC50 in MPCCs Albumin / TC50 in MPCCs Urea / TC50 in MPCCs ATP: human, 6 days
[1] = test system: primary human hepatocytes in MPCCs; settings: (ref 19), cited from earlier work; for TC50 in MPCCs ATP: concentration at which activity decreases by 50% of DMSO-only controls
[2] = negative number: withdrawn from the market; higher positive numbers: greater DILI concern; cited from earlier work
[3] = total human plasma concentration; cited from earlier work

Row | Compound | TC50 in MPCCs Albumin (iHeps in iMPCCs) [µM] | TC50 in MPCCs Albumin [1] [µM] | TC50 in MPCCs Urea [1] [µM] | TC50 in MPCCs ATP [1] [µM] | Cmax [3] [nM] | also measured
1 | NC(=O)c1cnccn1 [Pyrazinamide] | 33457.5 | 20420.3 | 14781.6 | 19695.5 | 407000 | toxicity call in iMPCCs / iHeps (iHeps in iMPCCs): toxic; Model predictions iCC (binary decision) (iHeps in iCCs): −; toxicity call in iCCs (iHeps in iCCs): non-toxic; DILI Sev (DILI severity scores from the LTKB of the FDA) [2]: 3
2 | CN(C)CCCN1c2ccccc2CCc2ccc(Cl)cc21 [Clomipramine] | 9.4 | 9.4 | 9.9 | 12.0 |  | TC50 in MPCCs Urea (iHeps in iMPCCs): 13.8 µM
3 | C[C@H](CS)C(=O)N1CCC[C@H]1C(=O)O [Captopril] |  |  |  |  | 4280 | 
4 | NC(=O)NO [Hydroxyurea] | 18398.4 | 28616.2 | 19647.8 | 7407.0 | 794000 | TC50 in MPCCs ATP (iHeps in iMPCCs): 49358.3 µM
5 | CCCCCCCCCCCCCCCC(=O)OC[C@@H](NC(=O)C(Cl)Cl)[C@H](O)c1ccc([N+](=O)[O-])cc1 [Chloramphenicol palmitate] |  |  |  |  | 20000 | Model predictions iMPCC (binary decision) (iHeps in iMPCCs): −
6 | CCc1oc2ccccc2c1C(=O)c1cc(Br)c(O)c(Br)c1 [Benzbromarone] |  | 31.3 | 27.9 | 15.1 | 4360 | DILI Sev (DILI severity scores from the LTKB of the FDA) [2]: −2
7 | CC(=O)O[C@]1(C(C)=O)CC[C@H]2[C@@H]3C=C(Cl)C4=CC(=O)[C@@H]5C[C@@H]5[C@]4(C)[C@H]3CC[C@@]21C [Cyproterone acetate] | 51.0 |  | 41.0 | 39.1 | 656 | toxicity call in iMPCCs / iHeps (iHeps in iMPCCs): toxic; TC50 in MPCCs Urea (iHeps in iMPCCs): 33.1 µM; Model predictions iCC (binary decision) (iHeps in iCCs): −; toxicity call in iCCs (iHeps in iCCs): non-toxic
8 | C[C@]12C=CC(=O)C=C1CC[C@@H]1[C@@H]2C(=O)C[C@@]2(C)[C@H]1CC[C@]2(O)C(=O)CO [Prednisone] |  |  |  |  | 68 | Model predictions iMPCC (binary decision) (iHeps in iMPCCs): −
9 | CCN(CC)C(=O)/C(C#N)=C/c1cc(O)c(O)c([N+](=O)[O-])c1 [entacapone] |  |  |  |  |  | albumin secretions in iMPCCs, toxicity over time and dose (iHeps in iMPCCs): time- and dose-dependent toxicities
10 | CC/C(=C(\c1ccccc1)c1ccc(OCCN(C)C)cc1)c1ccccc1 [Tamoxifen] | 4.2 | 3.2 | 3.9 | 15.8 | 162 | TC50 in MPCCs Urea (iHeps in iMPCCs): 11.7 µM; Model predictions iCC (binary decision) (iHeps in iCCs): −
11 | CN(C)CCCN1c2ccccc2CCc2ccccc21 [Imipramine HCl] |  |  |  |  |  | DILI Sev (DILI severity scores from the LTKB of the FDA) [2]: 3
12 | CCCCC1C(=O)N(c2ccccc2)N(c2ccccc2)C1=O [Phenylbutazone] |  | 6414.4 | 2532.0 | 7566.7 | 487000 | 
13 | O=C(O)c1cn(C2CC2)c2cc(N3CCNCC3)c(F)cc2c1=O [Ciprofloxacin HCl] | 525.3 |  |  |  |  | TC50 in MPCCs ATP (iHeps in iMPCCs): 804.2 µM; TC50 in MPCCs Urea (iHeps in iMPCCs): 326.3 µM
14 | COC(=O)Nc1nc2ccc(C(=O)c3ccccc3)cc2[nH]1 [Mebendazole] | 1.9 | 11.6 |  | 11.5 | 126 | TC50 in MPCCs Urea (iHeps in iMPCCs): 2.3 µM
15 | CC(C)NCC(O)COc1cccc2ccccc12 (stereo not shown) [Propranolol] |  |  |  |  | 201 | Model predictions iMPCC (binary decision) (iHeps in iMPCCs): −
16 | C#CC1(O)CC[C@H]2[C@@H]3CCC4=CC(=O)CC[C@@H]4[C@H]3CC[C@@]21CC (mixture of isomers) [Norgestrel] |  |  |  |  | 9 | 
17 | CNCCC=C1c2ccccc2CCc2ccccc21 [Nortriptyline HCl] |  |  |  |  | 122 | DILI Sev (DILI severity scores from the LTKB of the FDA) [2]: 8
18 | C#C[C@]1(O)CC[C@H]2[C@@H]3CCC4=Cc5oncc5C[C@]4(C)[C@H]3CC[C@@]21C [Danazol] |  |  |  |  | 74 | 

Row | Compound | TC50 in MPCCs Albumin (iHeps in iMPCCs) [µM] | TC50 in MPCCs Albumin [1] [µM] | TC50 in MPCCs Urea [1] [µM] | TC50 in MPCCs ATP [1] [µM] | Cmax [3] [nM] | also measured
19 | CN1C(C(=O)Nc2ccccn2)=C(O)c2ccccc2S1(=O)=O [Piroxicam] |  |  |  |  | 5140 | toxicity call in iMPCCs / iHeps (iHeps in iMPCCs): toxic; DILI Sev (DILI severity scores from the LTKB of the FDA) [2]: 3
20 | CCOc1ccc(NC(C)=O)cc1 [Phenacetin] | 1213.3 |  | 1076.1 |  | 13400 | TC50 in MPCCs Urea (iHeps in iMPCCs): 253.3 µM; Model predictions iCC (binary decision) (iHeps in iCCs): −; toxicity call in iCCs (iHeps in iCCs): not identified as toxic
21 | Clc1ccc(COC(Cn2ccnc2)c2ccc(Cl)cc2Cl)c(Cl)c1 (stereo not shown) [Miconazole] |  |  |  |  | 24 | Model predictions iMPCC (binary decision) (iHeps in iMPCCs): −
22 | C[C@]12CC[C@@H]3c4ccc(O)cc4CC[C@H]3[C@@H]1CCC2=O [Estrone] |  |  |  |  | 22 | 
23 | C[C@@H]1C[C@H]2[C@@H]3CCC4=CC(=O)C=C[C@]4(C)[C@@]3(F)[C@@H](O)C[C@]2(C)[C@@]1(O)C(=O)CO [Dexamethasone] |  |  |  |  | 224 | Model predictions iMPCC (binary decision) (iHeps in iMPCCs): −; Model predictions iCC (binary decision) (iHeps in iCCs): −; DILI Sev (DILI severity scores from the LTKB of the FDA) [2]: 3
24 | O=C1CC2(CCCC2)CC(=O)N1CCCCN1CCN(c2ncccn2)CC1 [Buspirone] |  |  |  |  | 5 | DILI Sev (DILI severity scores from the LTKB of the FDA) [2]: 3
25 | O=c1n(CCCN2CCN(c3cccc(Cl)c3)CC2)nc2ccccn12 [Trazodone HCl] | 205.5 | 64.8 | 121.8 | 201.7 | 5060 | TC50 in MPCCs ATP (iHeps in iMPCCs): 351.5 µM; TC50 in MPCCs Urea (iHeps in iMPCCs): 272.4 µM
26 | C=C[C@H]1C[N@@]2CC[C@H]1C[C@H]2[C@H](O)c1ccnc2ccc(OC)cc12 [Quinine] | 115.7 | 251.6 | 285.2 | 259.1 | 9250 | TC50 in MPCCs ATP (iHeps in iMPCCs): 182.2 µM; TC50 in MPCCs Urea (iHeps in iMPCCs): 127.9 µM
27 | O=C(O)Cc1ccccc1Nc1c(Cl)cccc1Cl [Diclofenac] |  | 141.9 | 206.2 | 638.4 |  | 
28 | Cc1cccc(Nc2ccccc2C(=O)O)c1C [Mefenamic acid] | 410.3 | 1291.9 | 1255.1 | 1393.4 | 27000 | TC50 in MPCCs ATP (iHeps in iMPCCs): 2551.9 µM; TC50 in MPCCs Urea (iHeps in iMPCCs): 572.3 µM
29 | CN(CCOc1ccc(CC2SC(=O)NC2=O)cc1)c1ccccn1 (stereo not shown) [Rosiglitazone] |  |  |  |  | 1120 | 
30 | CC(=O)[C@H]1CC[C@H]2[C@@H]3CCC4=CC(=O)CC[C@]4(C)[C@H]3CC[C@]12C [Progesterone] |  |  |  |  | 193 | 
31 | CNCCc1ccccn1.Cl.Cl [Betahistine 2HCl] |  |  |  |  | 4 | Model predictions iMPCC (binary decision) (iHeps in iMPCCs): −; DILI Sev (DILI severity scores from the LTKB of the FDA) [2]: 6
32 | CC(=O)CC(c1ccccc1)c1c(O)c2ccccc2oc1=O (stereo not shown) [Warfarin] |  |  |  |  | 4890 | 
33 | Cc1ccc(N(CC2=NCCN2)c2cccc(O)c2)cc1 [Phentolamine mesylate] |  |  |  |  | 86 | Model predictions iMPCC (binary decision) (iHeps in iMPCCs): −
34 | Cn1cc[nH]c1=S [Methimazole] |  |  |  |  | 1870 | 
35 | CCN(CC)CCOc1ccc(C(=C(Cl)c2ccccc2)c2ccccc2)cc1 [Clomiphene citrate] |  |  |  |  | 22 | Model predictions iMPCC (binary decision) (iHeps in iMPCCs): −
